Assays:
Assay in all cases: Indoor virulence and combined effect, greenhouse pot test, post-emergence stem and leaf spray, fresh weight inhibition
Type in all cases: in vivo
alopecurus japonicus = tested on: alopecurus japonicus
How it was run: (§1)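 Weeds in greenhouse pots received a spray-tower treatment, either post-emergence at the 3–4 leaf (grasses) or 4–6 leaf (broadleaf) stage, or pre-emergence as a soil spray 24 h after sowing. Compounds were applied in acetone diluted with 0.1 wt% Tween-80 water, alone or mixed, in g/ha. Fresh weight inhibition was measured at 21 days, with synergy judged by Gowing expected efficacy (E−E0 >10%).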

digitaria sanguinalis = conditions: for Fresh weight suppression rate %, A single agent: Table 14
How it was run: as §1

lolium multiflorum = tested on: lolium multiflorum
How it was run: as §1

eleusine indica = tested on: eleusine indica
How it was run: as §1

echinochloa crusgalli = conditions: for Fresh weight suppression rate %, A single dose: Table 22
How it was run: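 Greenhouse potted weeds sprayed post-emergence on stem and leaf at 3–4 leaf stage, with A and B alone or mixed; acetone solutions diluted in 0.1 wt% Tween-80, solvent-emulsifier water as blank.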

SMILES: CCOC(=O)C(C)(C)OC(=O)c1cc(-n2c(=O)cc(C(F)(F)F)n(C)c2=O)c(F)cc1Cl [Compound A-250]
- Fresh weight inhibition rate %, A single agent (alopecurus japonicus; Table 7, 15 g a.i./ha, post-emergence, 21 days after treatment): 39%
- Fresh weight inhibition rate %, A single agent (alopecurus japonicus; Table 7, 20 g a.i./ha, post-emergence, 21 days after treatment): 49.17%
- Fresh weight inhibition rate %, A single agent (alopecurus japonicus; Table 7, 25 g a.i./ha, post-emergence, 21 days after treatment): 55.39%
- Fresh weight inhibition rate %, A single agent (digitaria sanguinalis; Table 29, A 15 g a.i./ha): 54.46%
- Fresh weight inhibition rate %, A single agent (digitaria sanguinalis; Table 29, A 20 g a.i./ha): 61.09%
- Fresh weight inhibition rate %, A single agent (digitaria sanguinalis; Table 29, A 25 g a.i./ha): 65.86%
- Fresh weight inhibition rate %, A single agent (digitaria sanguinalis; Table 29, A 30 g a.i./ha): 71.11%
- Fresh weight inhibition rate %, A single agent (digitaria sanguinalis; Table 31, A 15 g a.i./ha): 54.46%
- Fresh weight inhibition rate %, A single agent (digitaria sanguinalis; Table 31, A 20 g a.i./ha): 61.09%
- Fresh weight inhibition rate %, A single agent (digitaria sanguinalis; Table 31, A 25 g a.i./ha): 65.86%
- Fresh weight inhibition rate %, A single agent (lolium multiflorum; Table 34, A 15 g a.i./ha): 55.00%
- Fresh weight inhibition rate %, A single agent (lolium multiflorum; Table 34, A 20 g a.i./ha): 68.03%
- Fresh weight inhibition rate %, A single agent (lolium multiflorum; Table 34, A 25 g a.i./ha): 70.36%
- Fresh weight inhibition rate %, A single agent (lolium multiflorum; Table 34, A 30 g a.i./ha): 75.35%
- Fresh weight inhibition rate %, A single agent (lolium multiflorum; Table 38, A 10 g a.i./ha): 43.34%
- Fresh weight inhibition rate %, A single agent (lolium multiflorum; Table 38, A 15 g a.i./ha): 55.00%
- Fresh weight inhibition rate %, A single agent (lolium multiflorum; Table 38, A 20 g a.i./ha): 68.03%
- Fresh weight inhibition rate %, A single agent (eleusine indica; Table 30, A 10 g a.i./ha): 43.34%
- Fresh weight inhibition rate %, A single agent (eleusine indica; Table 30, A 15 g a.i./ha): 55.00%
- Fresh weight inhibition rate %, A single agent (eleusine indica; Table 30, A 20 g a.i./ha): 68.03%
- Fresh weight inhibition rate %, A single agent (eleusine indica; Table 30, A 25 g a.i./ha): 70.36%
- Fresh weight inhibition rate %, A single agent (eleusine indica; Table 30, A 30 g a.i./ha): 75.35%
- Fresh weight inhibition rate %, A single agent (echinochloa crusgalli; Table 2, 15 g a.i./ha, post-emergence, 21 days after treatment): 26.41%
- Fresh weight inhibition rate %, A single agent (echinochloa crusgalli; Table 2, 20 g a.i./ha, post-emergence, 21 days after treatment): 30.73%
- Fresh weight inhibition rate %, A single agent (echinochloa crusgalli; Table 3, 20 g a.i./ha, post-emergence, 21 days after treatment): 30.73%
- Fresh weight inhibition rate %, A single agent (echinochloa crusgalli; Table 3, 25 g a.i./ha, post-emergence, 21 days after treatment): 31.56%
- Fresh weight inhibition rate %, A single agent (echinochloa crusgalli; Table 4, 15 g a.i./ha, post-emergence, 21 days after treatment): 26.41%
- Fresh weight inhibition rate %, A single agent (echinochloa crusgalli; Table 4, 20 g a.i./ha, post-emergence, 21 days after treatment): 30.73%
- Fresh weight inhibition rate %, A single agent (echinochloa crusgalli; Table 4, 25 g a.i./ha, post-emergence, 21 days after treatment): 31.56%
- Fresh weight suppression rate %, A single dose (echinochloa crusgalli; A 10 g a.i./ha): 17.77%
- Fresh weight suppression rate %, A single dose (echinochloa crusgalli; A 15 g a.i./ha): 26.41%
- Fresh weight suppression rate %, A single dose (echinochloa crusgalli; A 20 g a.i./ha): 30.73%
- Fresh weight suppression rate %, A single dose (echinochloa crusgalli; A 25 g a.i./ha): 31.56%

SMILES: COCCOC(=O)C(C)(C)OC(=O)c1cc(-n2c(=O)cc(C(F)(F)F)n(C)c2=O)c(F)cc1Cl [Compound A-273]
- Fresh weight inhibition rate %, A single agent (alopecurus japonicus; Table 5, 15 g a.i./ha, post-emergence, 21 days after treatment): 44.57%
- Fresh weight inhibition rate %, A single agent (alopecurus japonicus; Table 5, 20 g a.i./ha, post-emergence, 21 days after treatment): 61.55%
- Fresh weight inhibition rate %, A single agent (alopecurus japonicus; Table 5, 25 g a.i./ha, post-emergence, 21 days after treatment): 72.42%
- Fresh weight inhibition rate %, A single agent (alopecurus japonicus; Table 25, A 15 g a.i./ha): 44.57%
- Fresh weight inhibition rate %, A single agent (alopecurus japonicus; Table 25, A 20 g a.i./ha): 61.55%
- Fresh weight inhibition rate %, A single agent (alopecurus japonicus; Table 25, A 25 g a.i./ha): 72.42%
- Fresh weight inhibition rate %, A single agent (alopecurus japonicus; Table 25, A 30 g a.i./ha): 86.91%
- Fresh weight inhibition rate %, A single agent (digitaria sanguinalis; Table 1, 10 g a.i./ha, post-emergence, 21 days after treatment): 45.50%
- Fresh weight inhibition rate %, A single agent (digitaria sanguinalis; Table 1, 12.5 g a.i./ha, post-emergence, 21 days after treatment): 55.30%
- Fresh weight inhibition rate %, A single agent (digitaria sanguinalis; Table 1, 20 g a.i./ha, post-emergence, 21 days after treatment): 60.47%
- Fresh weight inhibition rate %, A single agent (digitaria sanguinalis; Table 1, 25 g a.i./ha, post-emergence, 21 days after treatment): 62.48%
- Fresh weight inhibition rate %, A single agent (digitaria sanguinalis; Table 13, A 20 g a.i./ha): 60.47%
- Fresh weight inhibition rate %, A single agent (digitaria sanguinalis; Table 13, A 25 g a.i./ha): 62.48%
- Fresh weight inhibition rate %, A single agent (digitaria sanguinalis; Table 13, A 30 g a.i./ha): 63.97%
- Fresh weight suppression rate %, A single agent (digitaria sanguinalis; A 10 g a.i./ha): 31.16%
- Fresh weight suppression rate %, A single agent (digitaria sanguinalis; A 15 g a.i./ha): 59.30%
- Fresh weight suppression rate %, A single agent (digitaria sanguinalis; A 20 g a.i./ha): 60.47%
- Fresh weight suppression rate %, A single agent (digitaria sanguinalis; A 30 g a.i./ha): 65.40%
- Fresh weight inhibition rate %, A single agent (digitaria sanguinalis; Table 15, A 15 g a.i./ha): 59.3%
- Fresh weight inhibition rate %, A single agent (digitaria sanguinalis; Table 15, A 20 g a.i./ha): 60.47%
- Fresh weight inhibition rate %, A single agent (digitaria sanguinalis; Table 15, A 25 g a.i./ha): 62.48%
- Fresh weight inhibition rate %, A single agent (digitaria sanguinalis; Table 16, A 10 g a.i./ha): 9.55%
- Fresh weight inhibition rate %, A single agent (digitaria sanguinalis; Table 16, A 20 g a.i./ha): 45.07%
- Fresh weight inhibition rate %, A single agent (digitaria sanguinalis; Table 16, A 25 g a.i./ha): 58.81%
- Fresh weight inhibition rate %, A single agent (digitaria sanguinalis; Table 16, A 30 g a.i./ha): 60.30%
- Fresh weight inhibition rate %, A single agent (digitaria sanguinalis; Table 41, A 10 g a.i./ha): 45.50%
- Fresh weight inhibition rate %, A single agent (digitaria sanguinalis; Table 41, A 15 g a.i./ha): 59.30%
- Fresh weight inhibition rate %, A single agent (digitaria sanguinalis; Table 41, A 20 g a.i./ha): 60.47%
- Fresh weight inhibition rate %, A single agent (digitaria sanguinalis; Table 41, A 25 g a.i./ha): 62.48%
- Fresh weight inhibition rate %, A single agent (lolium multiflorum; Table 19, A 5 g a.i./ha): 22.25%
- Fresh weight inhibition rate %, A single agent (lolium multiflorum; Table 19, A 10 g a.i./ha): 50.48%
- Fresh weight inhibition rate %, A single agent (lolium multiflorum; Table 19, A 15 g a.i./ha): 55.50%
- Fresh weight inhibition rate %, A single agent (lolium multiflorum; Table 19, A 20 g a.i./ha): 60.05%
- Fresh weight inhibition rate %, A single agent (lolium multiflorum; Table 20, A 5 g a.i./ha): 22.25%
- Fresh weight inhibition rate %, A single agent (lolium multiflorum; Table 20, A 10 g a.i./ha): 50.48%
- Fresh weight inhibition rate %, A single agent (lolium multiflorum; Table 20, A 15 g a.i./ha): 55.50%
- Fresh weight inhibition rate %, A single agent (lolium multiflorum; Table 20, A 20 g a.i./ha): 60.05%
- Fresh weight inhibition rate %, A single agent (lolium multiflorum; Table 27, A 15 g a.i./ha): 55.5%
- Fresh weight inhibition rate %, A single agent (lolium multiflorum; Table 27, A 20 g a.i./ha): 60.05%
- Fresh weight inhibition rate %, A single agent (lolium multiflorum; Table 27, A 25 g a.i./ha): 77.30%
- Fresh weight inhibition rate %, A single agent (eleusine indica; Table 18, A 5 g a.i./ha): 34.65%
- Fresh weight inhibition rate %, A single agent (eleusine indica; Table 18, A 10 g a.i./ha): 43.34%
- Fresh weight inhibition rate %, A single agent (eleusine indica; Table 18, A 15 g a.i./ha): 55.00%
- Fresh weight inhibition rate %, A single agent (eleusine indica; Table 18, A 20 g a.i./ha): 68.03%
- Fresh weight inhibition rate %, A single agent (eleusine indica; Table 32, A 15 g a.i./ha): 55.00%
- Fresh weight inhibition rate %, A single agent (eleusine indica; Table 32, A 20 g a.i./ha): 68.03%
- Fresh weight inhibition rate %, A single agent (eleusine indica; Table 32, A 25 g a.i./ha): 70.36%
- Fresh weight inhibition rate %, A single agent (eleusine indica; Table 33, A 10 g a.i./ha): 43.34%
- Fresh weight inhibition rate %, A single agent (eleusine indica; Table 33, A 15 g a.i./ha): 55.00%
- Fresh weight inhibition rate %, A single agent (eleusine indica; Table 33, A 20 g a.i./ha): 68.03%
- Fresh weight inhibition rate %, A single agent (eleusine indica; Table 33, A 25 g a.i./ha): 70.36%
- Fresh weight inhibition rate %, A single agent (eleusine indica; Table 33, A 30 g a.i./ha): 75.35%
- Fresh weight inhibition rate %, A single agent (eleusine indica; Table 35, A 10 g a.i./ha): 43.34%
- Fresh weight inhibition rate %, A single agent (eleusine indica; Table 35, A 15 g a.i./ha): 55.00%
- Fresh weight inhibition rate %, A single agent (eleusine indica; Table 35, A 20 g a.i./ha): 68.03%
- Fresh weight inhibition rate %, A single agent (eleusine indica; Table 35, A 25 g a.i./ha): 70.36%
- Fresh weight inhibition rate %, A single agent (eleusine indica; Table 36, A 5 g a.i./ha): 34.65%
- Fresh weight inhibition rate %, A single agent (eleusine indica; Table 36, A 10 g a.i./ha): 43.34%
- Fresh weight inhibition rate %, A single agent (eleusine indica; Table 36, A 15 g a.i./ha): 55.00%
- Fresh weight inhibition rate %, A single agent (eleusine indica; Table 36, A 20 g a.i./ha): 68.03%
- Fresh weight inhibition rate %, A single agent (eleusine indica; Table 36, A 25 g a.i./ha): 70.36%
- Fresh weight inhibition rate %, A single agent (echinochloa crusgalli; Table 17, 15 g a.i./ha, post-emergence, 21 days after treatment): 30.04%
- Fresh weight inhibition rate %, A single agent (echinochloa crusgalli; Table 17, 20 g a.i./ha, post-emergence, 21 days after treatment): 21.43%
- Fresh weight inhibition rate %, A single agent (echinochloa crusgalli; Table 17, 25 g a.i./ha, post-emergence, 21 days after treatment): 19.41%
- Fresh weight inhibition rate %, A single agent (echinochloa crusgalli; Table 37, A 10 g a.i./ha): 19.41%
- Fresh weight inhibition rate %, A single agent (echinochloa crusgalli; Table 37, A 15 g a.i./ha): 21.43%
- Fresh weight inhibition rate %, A single agent (echinochloa crusgalli; Table 37, A 20 g a.i./ha): 30.04%
- Fresh weight inhibition rate %, A single agent (echinochloa crusgalli; Table 37, A 25 g a.i./ha): 38.28%
- Fresh weight inhibition rate %, A single agent (echinochloa crusgalli; Table 44, A 10 g a.i./ha): 19.41%
- Fresh weight inhibition rate %, A single agent (echinochloa crusgalli; Table 44, A 15 g a.i./ha): 21.43%
- Fresh weight inhibition rate %, A single agent (echinochloa crusgalli; Table 44, A 20 g a.i./ha): 30.04%
- Fresh weight inhibition rate %, A single agent (echinochloa crusgalli; Table 44, A 25 g a.i./ha): 38.28%
